Experimental data: patent publication US9119853B2, “Sanglifehrin based compounds” (priority 2010, dated 2015)
≈ marks a conversion by molar mass, not a printed value. Where two headings read alike, the source gives them in different places.

Legend:
[1] = test system: HCV genotype 1b I389luc-ubi-neo/NS3-3'/5.1 replicon in Huh5.2 cells; assay: microbe, parasite or virus in culture; assay type: cell-based, Hepatitis C Virus
[2] = test system: HIV (pNL4.3-GFP / pNL4.3-BaL-GFP) in CD4+ HeLa cells; assay: microbe, parasite or virus in culture; assay type: cell-based; conditions: for EC50: Human immunodeficiency virus 1, BAL, HeLa, 48 h, read-out: HeLa cells EC50; for potency at inhibiting HIV infection compared to cyclosporine A, 1 (in words): four cell types
[3] = test system: HIV (pNL4.3-GFP / pNL4.3-BaL-GFP) in Jurkat cells; assay: microbe, parasite or virus in culture; assay type: cell-based; conditions: Human immunodeficiency virus 1, BAL, 48 h, read-out: T cells EC50
[4] = test system: HIV (pNL4.3-GFP / pNL4.3-BaL-GFP) in CD4+ T-lymphocytes; assay: microbe, parasite or virus in culture; assay type: cell-based; conditions: Human immunodeficiency virus 1, BAL, T-lymphocyte, 48 h, read-out: CD4+ T-lymphocytes EC50
[5] = test system: HIV (pNL4.3-GFP / pNL4.3-BaL-GFP) in macrophages; assay: microbe, parasite or virus in culture; assay type: cell-based; conditions: Human immunodeficiency virus 1, BAL, Macrophage, 48 h, read-out: Macrophages EC50
[6] = test system: peripheral blood mononuclear cells (PBMC); assay: Mixed lymphocyte reaction (MLR) for immunosuppressant activity; assay type: cell-based, human; conditions: for IC50: read-out: Human MLR IC50; for immunosuppressive activity (in words): MLR
physchem = conditions: pH 7.4, aqueous buffer, kinetic from dmso stock
[7] = biological target: T1, GST-CypD / Con1 NS5A-His complex (Homo sapiens, UniProt P30405); assay: biochemical
[8] = Anti-metabolic effect (MTS) in the replicon cell line; conditions: human
[9] = biological target: T1, GST-CypD / Con1 NS5A-His complex; assay: ELISA analysis of Cyp-NS5A interaction (CypD-NS5A disruption)
[10] = test system: HBV in HepG2 2.2.15 cells; assay: HBV antiviral assay (HBV DNA by qPCR); assay type: cell-based, Hepatitis B Virus; conditions: for EC50: Hepatitis B virus, read-out: HBV EC50
[11] = Cell viability (dye uptake) in the HBV assay; assay type: cell-based; conditions: human, HepG2 2.2.15 cells; read-out: TC50
Method: (§1) Antiviral efficacy against HBV may be tested as follows: HepG2 2.2.15 cells are plated in 96-well microtiter plates. After 16-24 hours the confluent monolayer of HepG2 2.2.15 cells is washed and the medium is replaced with complete medium containing various concentrations of a test compound in triplicate (eg six half-log concentrations). Three days later the culture medium is replaced with fresh medium containing the appropriately diluted test compounds. Six days following the initial administration of the test compound, the cell culture supernatant is collected, treated with pronase and then used in a real-time quantitative TaqMan qPCR assay. The PCR-amplified HBV DNA is detected in real-time by monitoring increases in fluorescence signals that result from the exonucleolytic degradation of a quenched fluorescent probe molecule that hybridizes to the amplified HBV DNA. For each PCR amplification, a standard curve is simultaneously generated using dilutions of purified HBV DNA. Antiviral activity is calculated from the reduction in HBV DNA levels (IC50). A dye uptake assay is then employed to measure cell viability, which is used to calculate toxicity (TC50). The therapeutic index (TI) is calculated as TC50/IC50.

[12] = pH 7.4
CyPA = CyPA (Homo sapiens, UniProt P62937); conditions: cited from earlier work
Huh5.2 cells = assay: Anti-metabolic effect (MTS) in the replicon cell line; conditions: for CC50: Huh5.2 cells, MTS, 72 hours
Solubility in PBS pH 7.4 = conditions: for solubility compared to sanglifehrin A (5) and cyclosporine A (1) (in words): PBS pH 7.4
HepG2 2.2.15 cells = assay: Cell viability (dye uptake) in the HBV assay; assay type: cell-based; conditions: at concentrations up to 32 μM
Method: as §1

HBV = conditions: Ptak et al. 2008; read-out: IC50 against HBV; cited from earlier work
HIV-1 = conditions: clinical, Steyn et al., 2006, cited from earlier work
[13] = Hepatitis C virus, Huh-5-2, 72 h

T1 sequence (P30405 30-207, one chain of several): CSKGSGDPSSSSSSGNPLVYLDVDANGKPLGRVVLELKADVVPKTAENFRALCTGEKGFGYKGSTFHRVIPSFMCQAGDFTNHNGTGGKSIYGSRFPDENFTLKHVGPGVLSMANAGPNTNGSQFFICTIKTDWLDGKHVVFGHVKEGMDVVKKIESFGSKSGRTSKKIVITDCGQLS
Chain of CyPA (P62937 whole entry): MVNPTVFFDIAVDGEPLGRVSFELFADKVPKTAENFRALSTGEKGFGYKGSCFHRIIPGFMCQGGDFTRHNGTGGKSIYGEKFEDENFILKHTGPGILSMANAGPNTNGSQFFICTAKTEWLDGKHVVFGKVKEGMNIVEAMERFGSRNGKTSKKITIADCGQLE

CC(=O)CC[C@H]1C(=O)N[C@@H](C(C)C)C(=O)N[C@@H](Cc2cccc(O)c2)C(=O)N2CCCC(N2)C(=O)O[C@H](/C(C)=C/C=C/C(=O)N2CCCCO2)C/C=C/C=C/[C@H](O)[C@H](C)[C@H]1O (stereo partly shown) [compound 55]
Selectivity index (CC50/EC50) [1]: >800 | potency in the Huh5.2 replicon assay (in words) [1]: very potent | EC50 [1, 13]: 125 nM | EC90 [1, 13]: 691 nM | EC50 [2]: 310 nM | potency at inhibiting HIV infection compared to cyclosporine A, 1 (in words) [2]: significantly more potent | EC50 [3]: 220 nM | EC50 [4]: 150 nM | EC50 [5]: 230 nM | IC50 ([6]; Homo sapiens, PBMC): 1450 nM | immunosuppressive activity (in words) [6]: very low levels of immunosuppressive activity | Solubility (physchem): > 100 µM | IC50 [7]: 230 nM | CC50 at 72 h [8]: > 100000 nM | disruption of the CypD-NS5A complex (in words) [9]: potent disruption

CC(=O)CC[C@H]1C(=O)N[C@@H](C(C)C)C(=O)N[C@@H](Cc2cccc(O)c2)C(=O)N2CCCC(N2)C(=O)O[C@H](/C(C)=C/C=C/C(=O)Nc2ccccn2)C/C=C/C=C/[C@H](O)[C@H](C)[C@H]1O (stereo partly shown) [compound 48]
potency in the Huh5.2 replicon assay (in words) [1]: very potent | EC50 [1, 13]: 167 nM | EC90 [1, 13]: 737 nM | EC50 [2]: 250 nM | potency at inhibiting HIV infection compared to cyclosporine A, 1 (in words) [2]: significantly more potent | EC50 [3]: 110 nM | EC50 [4]: 140 nM | EC50 [5]: 210 nM | EC50 ([10]; HepG2 2.2.15, […]): > 32000 nM | CC50 at 6 days [11]: > 32000 nM | IC50 ([6]; Homo sapiens, PBMC): 1060 nM | immunosuppressive activity (in words) [6]: very low levels of immunosuppressive activity | IC50 [7]: 380 nM | CC50 at 72 h [8]: 39700 nM | disruption of the CypD-NS5A complex (in words) [9]: potent disruption

CC(=O)CC[C@H]1C(=O)N[C@@H](C(C)C)C(=O)N[C@@H](Cc2cccc(O)c2)C(=O)N2CCCC(N2)C(=O)O[C@H](/C(C)=C/C=C/C(=O)N(CC(C)C)CC(C)C)C/C=C/C=C/[C@H](O)[C@H](C)[C@H]1O (stereo partly shown) [compound 32]
potency in the Huh5.2 replicon assay (in words) [1]: very potent | EC50 [1, 13]: 309 nM | EC90 [1, 13]: 1100 nM | Solubility [12]: 33 µM (≈ 29.4 µg/mL) | CC50 at 72 h [8]: 2100 nM

CC[C@H]1C[C@H](C)[C@@]2(NC1=O)O[C@@H](C[C@H](O)[C@@H](C)CC/C=C/C=C(\C)[C@@H]1C/C=C/C=C/[C@H](O)[C@H](C)[C@@H](O)[C@@H](CCC(C)=O)C(=O)N[C@@H](C(C)C)C(=O)N[C@@H](Cc3cccc(O)c3)C(=O)N3CCC[C@H](N3)C(=O)O1)[C@H](C)[C@H](O)[C@@H]2C [Sanglifehrin A, 5, Sanglifehrin A, reference compound]
EC50 ([1]; read-out: EC50): 318 nM | EC90 ([1]; read-out: EC90): 5500 nM | IC50 ([6]; 3H-thymidine proliferation): 215 nM | Solubility [12]: 9.4 µM (≈ 10.2 µg/mL) | higher affinity for CyPA compared to CsA (CyPA): approximately 20 fold | CC50 (Huh5.2 cells): 9100 nM | cytotoxicity against the cell line (in words) (Huh5.2 cells; as shown by CC50): more cytotoxicity | IC50 [9]: 370 nM

C=CCNC(=O)/C=C/C=C(\C)[C@@H]1C/C=C/C=C/[C@H](O)[C@H](C)[C@@H](O)[C@@H](CCC(C)=O)C(=O)N[C@@H](C(C)C)C(=O)N[C@@H](Cc2cccc(O)c2)C(=O)N2CCCC(N2)C(=O)O1 (stereo partly shown) [compound 25]
EC50 [1, 13]: 1600 nM | EC90 [1, 13]: 8500 nM | Solubility [12]: 96 µM (≈ 78.7 µg/mL) | solubility compared to sanglifehrin A (5) and cyclosporine A (1) (in words) (Solubility in PBS pH 7.4): increased solubility | CC50 at 72 h [8]: 48400 nM

CON(C)C(=O)/C=C/C=C(\C)[C@@H]1C/C=C/C=C/C=C(\C)[C@@H](O)[C@@H](CCC(C)=O)C(=O)N[C@@H](C(C)C)C(=O)N[C@@H](Cc2cccc(O)c2)C(=O)N2CCCC(N2)C(=O)O1 (stereo partly shown) [compound 29]
Selectivity index (CC50/EC50) [1]: 68.4 | potency in the Huh5.2 replicon assay (in words) [1]: very potent | EC50 [1, 13]: 293 nM | EC90 [1, 13]: 1500 nM | EC50 [2]: 400 nM | potency at inhibiting HIV infection compared to cyclosporine A, 1 (in words) [2]: significantly more potent | EC50 [3]: 200 nM | EC50 [4]: 210 nM | EC50 [5]: 310 nM | inhibiting replication of HBV (in words) [10]: remarkably potent | EC50 ([10]; HepG2 2.2.15, six days): < 100 nM | CC50 at 6 days [11]: > 32000 nM | cytotoxicity in HBV assay (in words) (HepG2 2.2.15 cells): no cytotoxicity | Solubility (physchem): 66 µM (≈ 53.2 µg/mL) | IC50 [7]: 250 nM | CC50 at 72 h [8]: 20200 nM | disruption of the CypD-NS5A complex (in words) [9]: potent disruption

C/C=C/C[C@@H](C)[C@@H](O)[C@H]1C(=O)N[C@@H](CC)C(=O)N(C)[C@H](C)C(=O)N(CC)[C@@H](C(C)C)C(=O)N[C@@H](C(C)C)C(=O)N(C)[C@@H](CC(C)C)C(=O)N[C@@H](C)C(=O)N[C@H](C)C(=O)N(C)[C@@H](CC(C)C)C(=O)N(C)[C@@H](CC(C)C)C(=O)N(C)[C@@H](C(C)C)C(=O)N1C [DEBIO-025]
IC50 (HBV): 4100 nM | reduction of HIV-1 RNA levels (HIV-1; in nine patients): ≥ 0.5 log10 copies/mL | reduction of HIV-1 RNA levels (HIV-1; in two patients): > 1 log10 copies/mL

CCN(CC)C(=O)/C=C/C=C(\C)[C@@H]1C/C=C/C=C/[C@H](O)[C@H](C)[C@@H](O)[C@@H](CCC(C)=O)C(=O)N[C@@H](C(C)C)C(=O)N[C@@H](Cc2cccc(O)c2)C(=O)N2CCCC(N2)C(=O)O1 (stereo partly shown) [compound 13]
Selectivity index (CC50/EC50) [1]: >490 | potency in the Huh5.2 replicon assay (in words) [1]: very potent | EC50 [1, 13]: 204 nM | EC90 [1, 13]: 1200 nM | solubility compared to sanglifehrin A (5) and cyclosporine A (1) (in words) (Solubility in PBS pH 7.4): increased solubility | solubility at 4 h (Solubility in PBS pH 7.4; PBS, pH 7.4, aqueous buffer, kinetic from dmso stock): > 100 µM | CC50 at 72 h [8]: > 100000 nM

CC(=O)CC[C@H]1C(=O)N[C@@H](C(C)C)C(=O)N[C@@H](Cc2cccc(O)c2)C(=O)N2CCC[C@H](N2)C(=O)O[C@H](/C(C)=C/CO)C/C=C/C=C/[C@H](O)[C@H](C)[C@H]1O [hydroxymacrocycle, 6, reference compound]
potency in the Huh5.2 replicon assay (in words) [1]: less potent | EC50 ([1]; read-out: EC50): 8400 nM | EC90 ([1]; read-out: EC90): 39700 nM | CC50 (Huh5.2 cells): 83600 nM
